# pIC50, pKi: −log10 of the molar value.
# How the values were obtained:
# HCT-116 = test: Cytotoxicity against human HCT116 cells; format: functional, cell-based
# Mus musculus = test: Toxicity in ip dosed ddY mouse bearing mouse S180 cells; format: organism-based, CCRF S-180; conditions: in vivo
# CCRF S-180 = test: Antitumor activity against mouse S180 cells implanted in ip dosed ddY mouse assessed as tumor volume after 7 days; format: functional
# [1] = Inhibition of sunflower S-adenosyl-L-methionine-C-24 methyltransferase; parameters: species or system Helianthus annuus
# Bacillus anthracis = test: Antimicrobial activity against Bacillus anthracis; format: functional
# Bacillus cereus = test: Antimicrobial activity against Bacillus cereus ATCC 10702; format: functional
# Bacillus subtilis [2] = test: Antimicrobial activity against Bacillus subtilis NRRL B-558; format: functional
# Bacillus subtilis [3] = test: Antimicrobial activity against Bacillus subtilis PCI 219; format: functional
# Corynebacterium bovis = test: Antimicrobial activity against Corynebacterium bovis 1810; format: functional
# Escherichia coli [4] = test: Antimicrobial activity against Escherichia coli K-12; format: functional
# Escherichia coli [5] = test: Antimicrobial activity against Escherichia coli K-12 MLI629; format: functional
# Escherichia coli [6] = test: Antimicrobial activity against Escherichia coli BEM11; format: functional
# Escherichia coli [7] = test: Antimicrobial activity against Escherichia coli BE1126; format: functional
# Escherichia coli [8] = test: Antimicrobial activity against Escherichia coli BE1186; format: functional
# Klebsiella pneumoniae = test: Antimicrobial activity against Klebsiella pneumoniae PCI602; format: functional
# Proteus vulgaris = test: Antimicrobial activity against Proteus vulgaris OX19; format: functional
# Proteus mirabilis = test: Antimicrobial activity against Proteus mirabilis IFM OM-9; format: functional
# Providencia rettgeri [9] = test: Antimicrobial activity against Providencia rettgeri GN311; format: functional
# Providencia rettgeri [10] = test: Antimicrobial activity against Providencia rettgeri GN466; format: functional
# Pseudomonas aeruginosa [11] = test: Antimicrobial activity against Pseudomonas aeruginosa A3; format: functional
# Pseudomonas aeruginosa [12] = test: Antimicrobial activity against Pseudomonas aeruginosa GN315; format: functional
# Staphylococcus aureus [13] = test: Antimicrobial activity against Staphylococcus aureus FDA209P; format: functional
# Staphylococcus aureus [14] = test: Antimicrobial activity against Staphylococcus aureus Smith; format: functional
# Staphylococcus aureus [15] = test: Antimicrobial activity against methicillin-resistant Staphylococcus aureus isolate 5; format: functional
# Staphylococcus aureus [16] = test: Antimicrobial activity against methicillin-resistant Staphylococcus aureus isolate 17; format: functional
# Micrococcus luteus [17] = test: Antimicrobial activity against Micrococcus luteus IFO 3333; format: functional
# Micrococcus luteus [18] = test: Antimicrobial activity against Micrococcus luteus PCI 1001; format: functional
# [19] = system: Salmonella enterica subsp. enterica; test: Antimicrobial activity against Salmonella typhi T-63; format: functional, Salmonella enterica subsp. enterica serovar Typhi
# [20] = system: Salmonella enterica subsp. enterica; test: Antimicrobial activity against Salmonella enteritidis 1891; format: functional, Salmonella enterica subsp. enterica serovar Enteritidis
# Shigella dysenteriae = test: Antimicrobial activity against Shigella dysenteriae JS1 1910; format: functional
# Shigella flexneri = test: Antimicrobial activity against Shigella flexneri 4bJS11811; format: functional
# [21] = system: Salmonella enterica subsp. enterica; test: Antimicrobial activity against Salmonella typhi JS11746; format: functional, Salmonella enterica subsp. enterica serovar Typhi
# Staphylococcus aureus [22] = test: Antimicrobial activity against Staphylococcus aureus MS9610; format: functional
# Micrococcus luteus [23] = test: Antimicrobial activity against Micrococcus luteus FDA16; format: functional
# Escherichia coli [24] = test: Antimicrobial activity against Escherichia coli NIHJ; format: functional
# [25] = system: Mycolicibacterium smegmatis; test: Antimicrobial activity against Mycobacterium smegmatis ATCC 607; format: functional
# Mycolicibacterium vaccae = test: Antimicrobial activity against Mycobacterium vaccae ATCC 15483; format: functional
# [26] = system: Mycolicibacterium smegmatis; test: Antimicrobial activity against rifamycin-resistant Mycobacterium smegmatis ATCC 607; format: functional
# [27] = molecular target: Procathepsin L (Homo sapiens) (UniProt P07711); test: Inhibition of cathepsin L
# Chain of Procathepsin L (Homo sapiens) (P07711 114-333 limits assumed): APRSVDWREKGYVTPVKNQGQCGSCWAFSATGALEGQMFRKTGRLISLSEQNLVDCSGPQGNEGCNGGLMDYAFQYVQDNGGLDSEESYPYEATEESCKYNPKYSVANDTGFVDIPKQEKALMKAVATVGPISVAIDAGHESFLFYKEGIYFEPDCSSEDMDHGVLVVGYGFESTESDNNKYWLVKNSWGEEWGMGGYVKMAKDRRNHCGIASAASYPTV
# Cathepsin B = Cathepsin B (Homo sapiens, UniProt P07858); test: Inhibition of cathepsin B
# [28] = Inhibition of trypsin
# [29] = Inhibition of Pepsin
# L5178Y = test: Cytotoxicity against mouse L5178Y cells; format: functional, cell-based
# [30] = Antitumor activity against mouse mammary cancer cell implanted in C3H/An mouse assessed as inhibition of tumor growth at 0.5 mg/day for 14 days; format: functional, Cancer cell lines
smiles,measurement,setting,value
COC(=O)[C@H]1N=C1/C=C/CCCCCCCCCC=C(Br)Br,pIC50,HCT-116,4.71
C=C1C2=C(C(=O)C(C)=C(N)C2=O)N2C[C@H]3[C@H](N3C)[C@]12O (stereo not given in full) [MITOMYCIN Z],LD50,Mus musculus,210 µg/mL
same,ED50,CCRF S-180,82 µg/mL
CC(=O)O[C@H]1C(=O)[C@@]2(C)C([C@H](OC(=O)c3ccccc3)[C@]3(O)C[C@H](OC(=O)[C@@H](O)[C@H](CC(=O)OC(C)(C)C)c4ccco4)C(C)=C1C3(C)C)[C@]1(OC(=O)N3CC3)CO[C@@H]1C[C@@H]2O (stereo not given in full),pIC50,HCT-116,8.70
C[C@H](CCC1NC1(C)C)[C@H]1CC[C@@]2(C)C3=C(CC[C@]12C)[C@@]1(C)CC[C@H](O)C(C)(C)[C@@H]1CC3 (mixture of isomers),pKi,[1],8.52
COC1=C(C)C(=O)C2=C(C1=O)[C@H](COC(N)=O)[C@@]1(O)[C@@H]3[C@H](CN21)N3C (stereo not given in full) [MITOMYCIN B],LD50,Mus musculus,4.5 µg/mL
same,ED50,CCRF S-180,2.5 µg/mL
COc1c(O)cc2c(OC)c3c(c(O)c2c1O)C(=O)CC1CC(O)(C2CN2C)CC(=O)C31O (stereo not given) [AZICEMICIN A],MIC,Bacillus anthracis,100 µg/mL
same,MIC,Bacillus cereus,> 100 µg/mL
same,MIC,Bacillus subtilis [2],> 100 µg/mL
same,MIC,Bacillus subtilis [3],> 100 µg/mL
same,MIC,Corynebacterium bovis,25 µg/mL
same,MIC,Escherichia coli [4],> 100 µg/mL
same,MIC,Escherichia coli [5],> 100 µg/mL
same,MIC,Escherichia coli [6],100 µg/mL
same,MIC,Escherichia coli [7],100 µg/mL
same,MIC,Escherichia coli [8],100 µg/mL
same,MIC,Klebsiella pneumoniae,100 µg/mL
same,MIC,Proteus vulgaris,> 100 µg/mL
same,MIC,Proteus mirabilis,> 100 µg/mL
same,MIC,Providencia rettgeri [9],> 100 µg/mL
same,MIC,Providencia rettgeri [10],> 100 µg/mL
same,MIC,Pseudomonas aeruginosa [11],> 50 µg/mL
same,MIC,Pseudomonas aeruginosa [12],> 100 µg/mL
same,MIC,Staphylococcus aureus [13],> 100 µg/mL
same,MIC,Staphylococcus aureus [14],> 100 µg/mL
same,MIC,Staphylococcus aureus [15],> 100 µg/mL
same,MIC,Staphylococcus aureus [16],> 100 µg/mL
same,MIC,Micrococcus luteus [17],12.5 µg/mL
same,MIC,Micrococcus luteus [18],12.5 µg/mL
same,MIC,[19],100 µg/mL
same,MIC,[20],100 µg/mL
same,MIC,Shigella dysenteriae,100 µg/mL
same,MIC,Shigella flexneri,50 µg/mL
same,MIC,[21],100 µg/mL
same,MIC,Staphylococcus aureus [22],> 100 µg/mL
same,MIC,Micrococcus luteus [23],50 µg/mL
same,MIC,Escherichia coli [24],50 µg/mL
same,MIC,[25],50 µg/mL
same,MIC,Mycolicibacterium vaccae,50 µg/mL
same,MIC,[26],50 µg/mL
CC[C@H](NC(=O)C[C@H](O)[C@H](CC(C)C)NC(=O)[C@H](CC(C)C)NC(=O)[C@@H]1N[C@H]1C(=O)O)C(=O)N[C@H](/C=C/C(=O)O)CCCN=C(N)N [MIRAZIRIDINE A],INH,[27],1 ×10⁶ /M/s
same,pIC50,Cathepsin B,5.68
same,INH,Cathepsin B,1.5 ×10⁴ /M/s
same,INH,[28],6 ×10⁻⁵ M
same,INH,[29],1.4 ×10⁻⁸ M
CC(=O)NC1CCn2c1nc1c2CC(C)=C(N2CC2)C1=O (stereo not given),pIC50,L5178Y,5.40
COC1=C(C)C(=O)C2=C(C1=O)[C@H](COC(N)=O)[C@@]1(OC)[C@@H]3[C@H](CN21)N3C (stereo not given in full) [MITOMYCIN J],LD50,Mus musculus,9 µg/mL
same,ED50,CCRF S-180,10 µg/mL
CC(=O)[C@H]1C(N2CC2)C[C@H]2[C@@H]3CC=C4C[C@@H](O)CC[C@]4(C)[C@H]3CC[C@]12C (stereo not given in full),inhibition (INH),[30],61%

# Reference: ChEMBL document CHEMBL1154010, “Aziridine alkaloids as potential therapeutic agents” (Eur J Med Chem, 2009)
